Measured values reported in patent US20100267561A1, “HERBICIDAL PYRIDAZINONE DERIVATIVES” (priority 2007, published 2010).

Tests used:
Assay type in all cases: in vivo
[1] = test system: barnyardgrass (Echinochloa crus-galli); experiment: Test A pre-/postemergence plant response
In short: (§1)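 Greenhouse pot test: loam–sand soil; pre- and postemergence sprays applied same day; post plants 2–10 cm, 1–2 leaves. Readout ~10 d, visual % injury vs untreated (0 = none, 100 = complete control).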

[2] = test system: wheat (Triticum aestivum); experiment: Test A pre-/postemergence plant response
In short: as §1

[3] = test system: pigweed (Amaranthus retroflexus); experiment: Test A pre-/postemergence plant response
In short: as §1

[4] = test system: morningglory (Ipomoea coccinea); experiment: Test A pre-/postemergence plant response
In short: as §1

corn (Zea mays) = experiment: Test A pre-/postemergence plant response
In short: as §1

[5] = test system: johnsongrass (Sorghum halepense); experiment: Test B pre-/postemergence plant response
In short: (§2)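 Visual scoring from 0 (no effect) to 100 (complete control) against untreated controls was done 13 to 15 days after greenhouse treatment. Chemicals were formulated in a surfactant-containing non-phytotoxic solvent and applied to soil preemergence or to 1- to 4-leaf (2-18 cm) plants postemergence.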

[6] = test system: pigweed (Amaranthus retroflexus); experiment: Test B pre-/postemergence plant response
In short: as §2

[7] = test system: catchweed bedstraw (Galium aparine); experiment: Test B pre-/postemergence plant response; conditions: Preemergence; for Galium plant response rating: 8 g ai/ha
In short: as §2

[8] = test system: canarygrass (Phalaris minor); experiment: Test B postemergence plant response; conditions: for Canarygrass plant response rating: 8 g ai/ha, postemergence, 0-100 scale; for Plant response rating, Canarygrass: Postemergence
Method: (§3) At the same time, plants selected from these crop and weed species and also winter barley (Hordeum vulgare), canarygrass (Phalaris minor), chickweed (Stellaria media) and windgrass (Apera spica-venti) were treated with postemergence applications of some of the test chemicals formulated in the same manner. Plants ranged in height from 2 to 18 cm (1- to 4-leaf stage) for postemergence treatments.
(§4) Plant species in the flooded paddy test consisted of rice (Oryza sativa), umbrella sedge (Cyperus difformis), ducksalad (Heteranthera limosa) and barnyardgrass (Echinochloa crus-galli) grown to the 2-leaf stage for testing. At time of treatment, test pots were flooded to 3 cm above the soil surface, treated by application of test compounds directly to the paddy water, and then maintained at that water depth for the duration of the test. Treated plants and controls were maintained in a greenhouse for 13 to 15 days, after which time all species were compared to controls and visually evaluated. Plant response ratings, summarized in Table B, are based on a scale of 0 to 100 where 0 is no effect and 100 is complete control. A dash (-) response means no test result.

[9] = test system: chickweed (Stellaria media); experiment: Test B postemergence plant response; conditions: for Chickweed plant response rating: 8 g ai/ha, postemergence, 0-100 scale; for Plant response rating, Chickweed: Postemergence
Method: as §3, §4

[10] = test system: windgrass (Apera spica-venti); experiment: Test B postemergence plant response; conditions: for Windgrass plant response rating: postemergence, 0-100 scale; for Plant response rating, Windgrass: Postemergence
Method: as §3, §4

[11] = test system: winter barley (Hordeum vulgare); experiment: Test B postemergence plant response; conditions: for Barley plant response rating: 8 g ai/ha, postemergence, 0-100 scale; for Plant response rating, Barley: Postemergence, scale 0 to 100, 0 no effect, 100 complete control
Method: as §3, §4

[12] = Postemergence, 31 g ai/ha, 0 to 100 scale, 0 no effect, 100 complete control
[13] = Postemergence, 125 g ai/ha, 0 to 100 scale, 0 no effect, 100 complete control
[14] = Preemergence, 31 g ai/ha, 0 to 100 scale, 0 is no effect, 100 is complete control
[15] = Preemergence, 125 g ai/ha, 0 to 100 scale (0 no effect, 100 complete control)
[16] = Preemergence, 16 g ai/ha, scale 0 to 100 (0 no effect, 100 complete control)
[17] = Preemergence, 31 g ai/ha, 0 to 100 scale, 0 no effect, 100 complete control
[18] = Preemergence, 62 g ai/ha, scale 0 to 100
[19] = Preemergence, 8 g ai/ha, scale 0 to 100
[20] = Preemergence, 31 g ai/ha, scale 0 to 100 (0 no effect, 100 complete control)
[21] = 16 g ai/ha, scale 0 to 100 (0 no effect, 100 complete control)
[22] = 31 g ai/ha, 0 to 100 scale, 0 no effect, 100 complete control
[23] = Preemergence, 16 g ai/ha, scale 0 to 100
[24] = 8 g ai/ha, postemergence, 0-100 scale
[25] = Postemergence, 16 g ai/ha, scale 0 to 100
[26] = Postemergence, 31 g ai/ha, scale 0 to 100
[27] = Postemergence, 62 g ai/ha, scale 0 to 100, 0 no effect, 100 complete control
[28] = 62 g ai/ha, scale 0 to 100, 0 no effect, 100 complete control
[29] = 16 g ai/ha, postemergence, 0-100 scale

Cc1cc(-c2ccc(Cl)cc2)nn1-c1c(OS(=O)(=O)c2cccc3ccccc23)cnn(C)c1=O [Compound 47]
Plant response rating, Barnyardgrass [1, 12]: 0
Plant response rating, Barnyardgrass [1, 13]: 40
Plant response rating, Barnyardgrass [1, 14]: 20
Plant response rating, Barnyardgrass [1, 15]: 80
Plant response rating, Wheat [2, 12]: 0
Plant response rating, Wheat [2, 13]: 10
Plant response rating, Wheat [2, 14]: 0
Plant response rating, Wheat [2, 15]: 40
Plant response rating, Pigweed [3, 12]: 0
Plant response rating, Pigweed [3, 13]: 0
Plant response rating, Pigweed [3, 14]: 0
Plant response rating, Pigweed [3, 15]: 0
Plant response rating, Morningglory [4, 12]: 0
Plant response rating, Morningglory [4, 13]: 0
Plant response rating, Morningglory [4, 14]: 0
Plant response rating, Morningglory [4, 15]: 0
Plant response rating, Corn (corn (Zea mays); [12]): 0
Plant response rating, Corn (corn (Zea mays); [13]): 10
Plant response rating, Corn (corn (Zea mays); [14]): 0
Plant response rating, Corn (corn (Zea mays); [15]): 40
Plant response rating, Johnsongrass [5, 16]: 75
Plant response rating, Johnsongrass [5, 17]: 85
Plant response rating, Johnsongrass [5, 18]: 95
Johnsongrass plant response rating [5, 19]: 0
Plant response rating, Pigweed [6, 20]: 0
Plant response rating, Pigweed [6, 18]: 0
Pigweed plant response rating [6, 19]: 0
Plant response rating, Galium [7, 21]: 0
Plant response rating, Galium [7, 22]: 0
Galium plant response rating ([7]; scale 0 to 100): 0

Cc1cc(-c2ccc(Cl)cc2)nn1-c1c(OS(=O)(=O)C(C)C)cnn(C)c1=O [Compound 50]
Plant response rating, Barnyardgrass [1, 12]: 0
Plant response rating, Barnyardgrass [1, 13]: 70
Plant response rating, Barnyardgrass [1, 14]: 10
Plant response rating, Barnyardgrass [1, 15]: 100
Plant response rating, Wheat [2, 12]: 0
Plant response rating, Wheat [2, 13]: 20
Plant response rating, Wheat [2, 14]: 0
Plant response rating, Wheat [2, 15]: 50
Plant response rating, Pigweed [3, 12]: 0
Plant response rating, Pigweed [3, 13]: 0
Plant response rating, Pigweed [3, 14]: 0
Plant response rating, Pigweed [3, 15]: 0
Plant response rating, Morningglory [4, 12]: 0
Plant response rating, Morningglory [4, 13]: 0
Plant response rating, Morningglory [4, 14]: 0
Plant response rating, Morningglory [4, 15]: 0
Plant response rating, Corn (corn (Zea mays); [12]): 0
Plant response rating, Corn (corn (Zea mays); [13]): 30
Plant response rating, Corn (corn (Zea mays); [14]): 0
Plant response rating, Corn (corn (Zea mays); [15]): 20
Plant response rating, Johnsongrass [5, 16]: 95
Plant response rating, Johnsongrass [5, 17]: 98
Plant response rating, Johnsongrass [5, 18]: 100
Johnsongrass plant response rating [5, 19]: 70
Plant response rating, Pigweed [6, 16]: 0
Plant response rating, Pigweed [6, 20]: 0
Plant response rating, Pigweed [6, 18]: 0
Pigweed plant response rating [6, 19]: 0
Plant response rating, Galium [7, 21]: 0
Galium plant response rating ([7]; scale 0 to 100): 0

Cc1cc(-c2ccc(Cl)cc2)nn1-c1c(OS(=O)(=O)c2ccc(Cl)s2)cnn(C)c1=O [Compound 55]
Plant response rating, Barnyardgrass [1, 12]: 0
Plant response rating, Barnyardgrass [1, 13]: 30
Plant response rating, Barnyardgrass [1, 14]: 0
Plant response rating, Barnyardgrass [1, 15]: 80
Plant response rating, Wheat [2, 12]: 0
Plant response rating, Wheat [2, 13]: 30
Plant response rating, Wheat [2, 14]: 0
Plant response rating, Wheat [2, 15]: 50
Plant response rating, Pigweed [3, 12]: 0
Plant response rating, Pigweed [3, 13]: 0
Plant response rating, Pigweed [3, 14]: 0
Plant response rating, Pigweed [3, 15]: 0
Plant response rating, Morningglory [4, 12]: 0
Plant response rating, Morningglory [4, 13]: 0
Plant response rating, Morningglory [4, 14]: 0
Plant response rating, Morningglory [4, 15]: 0
Plant response rating, Corn (corn (Zea mays); [12]): 0
Plant response rating, Corn (corn (Zea mays); [13]): 40
Plant response rating, Corn (corn (Zea mays); [14]): 0
Plant response rating, Corn (corn (Zea mays); [15]): 40
Plant response rating, Johnsongrass [5, 17]: 70
Plant response rating, Johnsongrass [5, 18]: 95
Johnsongrass plant response rating [5, 19]: 0
Johnsongrass plant response rating [5, 23]: 15
Plant response rating, Pigweed [6, 20]: 0
Plant response rating, Pigweed [6, 18]: 0
Pigweed plant response rating [6, 19]: 0
Pigweed plant response rating [6, 23]: 0
Plant response rating, Galium [7, 22]: 0
Plant response rating, Galium ([7]; 62 g ai/ha, scale 0 to 100): 0
Galium plant response rating ([7]; scale 0 to 100): 0

Cc1nn(C)c(=O)c(-n2nc(-c3ccc(Cl)cc3)cc2Cl)c1O [Compound 59]
Plant response rating, Barnyardgrass [1, 12]: 90
Plant response rating, Barnyardgrass [1, 13]: 100
Plant response rating, Barnyardgrass [1, 14]: 90
Plant response rating, Barnyardgrass [1, 15]: 100
Plant response rating, Wheat [2, 12]: 0
Plant response rating, Wheat [2, 13]: 60
Plant response rating, Wheat [2, 14]: 0
Plant response rating, Wheat [2, 15]: 50
Plant response rating, Pigweed [3, 12]: 0
Plant response rating, Pigweed [3, 13]: 0
Plant response rating, Pigweed [3, 14]: 0
Plant response rating, Pigweed [3, 15]: 0
Plant response rating, Morningglory [4, 12]: 0
Plant response rating, Morningglory [4, 13]: 0
Plant response rating, Morningglory [4, 14]: 0
Plant response rating, Morningglory [4, 15]: 0
Plant response rating, Corn (corn (Zea mays); [12]): 30
Plant response rating, Corn (corn (Zea mays); [13]): 70
Plant response rating, Corn (corn (Zea mays); [14]): 0
Plant response rating, Corn (corn (Zea mays); [15]): 60
Johnsongrass plant response rating [5, 24]: 0
Plant response rating, Johnsongrass [5, 25]: 0
Plant response rating, Johnsongrass [5, 26]: 60
Plant response rating, Johnsongrass [5, 27]: 80
Pigweed plant response rating [6, 24]: 0
Plant response rating, Pigweed [6, 25]: 0
Plant response rating, Pigweed [6, 26]: 0
Plant response rating, Pigweed [6, 27]: 0
Canarygrass plant response rating [8]: 0
Plant response rating, Canarygrass ([8]; 16 g ai/ha, scale 0 to 100): 40
Plant response rating, Canarygrass ([8]; 31 g ai/ha, scale 0 to 100): 55
Plant response rating, Canarygrass [8, 28]: 70
Chickweed plant response rating [9]: 0
Plant response rating, Chickweed ([9]; 16 g ai/ha, scale 0 to 100): 0
Plant response rating, Chickweed ([9]; 31 g ai/ha, scale 0 to 100): 0
Plant response rating, Chickweed [9, 28]: 0
Windgrass plant response rating ([10]; 8 g ai/ha): 0
Plant response rating, Windgrass ([10]; 16 g ai/ha, scale 0 to 100): 0
Plant response rating, Windgrass ([10]; 31 g ai/ha, scale 0 to 100): 10
Plant response rating, Windgrass [10, 28]: 50
Barley plant response rating [11]: 0
Plant response rating, Barley ([11]; 16 g ai/ha): 0
Plant response rating, Barley ([11]; 31 g ai/ha): 20
Plant response rating, Barley ([11]; 62 g ai/ha): 50

CCc1cc(-c2ccc(Br)cc2)nn1-c1c(O)cnn(CC(F)(F)F)c1=O [Compound 73]
Plant response rating, Barnyardgrass [1, 12]: 60
Plant response rating, Barnyardgrass [1, 13]: 100
Plant response rating, Barnyardgrass [1, 14]: 0
Plant response rating, Barnyardgrass [1, 15]: 10
Plant response rating, Wheat [2, 12]: 40
Plant response rating, Wheat [2, 13]: 70
Plant response rating, Wheat [2, 14]: 20
Plant response rating, Wheat [2, 15]: 70
Plant response rating, Pigweed [3, 12]: 10
Plant response rating, Pigweed [3, 13]: 10
Plant response rating, Pigweed [3, 14]: 0
Plant response rating, Pigweed [3, 15]: 0
Plant response rating, Corn (corn (Zea mays); [12]): 90
Plant response rating, Corn (corn (Zea mays); [13]): 100
Plant response rating, Corn (corn (Zea mays); [14]): 0
Plant response rating, Corn (corn (Zea mays); [15]): 20
Johnsongrass plant response rating [5, 24]: 70
Johnsongrass plant response rating [5, 29]: 85
Plant response rating, Johnsongrass [5, 26]: 90
Plant response rating, Johnsongrass [5, 27]: 100
Pigweed plant response rating [6, 24]: 0
Pigweed plant response rating [6, 29]: 0
Plant response rating, Pigweed [6, 26]: 0
Plant response rating, Pigweed [6, 27]: 0
Canarygrass plant response rating [8]: 30
Plant response rating, Canarygrass ([8]; 16 g ai/ha, scale 0 to 100): 90
Plant response rating, Canarygrass ([8]; 31 g ai/ha, scale 0 to 100): 90
Plant response rating, Canarygrass [8, 28]: 100
Chickweed plant response rating [9]: 0
Plant response rating, Chickweed ([9]; 16 g ai/ha, scale 0 to 100): 0
Plant response rating, Chickweed ([9]; 31 g ai/ha, scale 0 to 100): 0
Plant response rating, Chickweed [9, 28]: 0
Windgrass plant response rating ([10]; 8 g ai/ha): 50
Windgrass plant response rating ([10]; 16 g ai/ha): 60
Plant response rating, Windgrass ([10]; 31 g ai/ha, scale 0 to 100): 80
Plant response rating, Windgrass [10, 28]: 95
Barley plant response rating [11]: 0
Plant response rating, Barley ([11]; 16 g ai/ha): 40
Plant response rating, Barley ([11]; 31 g ai/ha): 40
Plant response rating, Barley ([11]; 62 g ai/ha): 70
